The results in this text go back to ChEMBL document CHEMBL4483862, “Open-source discovery of chemical leads for next-generation chemoprotective antimalarials” (2018).

Molecules are shown by their SMILES.

This experiment relates to Plasmodium berghei. The experiment is described as follows: Luciferase/luciferin-expressing antifolate-resistant parasites were used to infect a culture of HepG2 cells that were pre-incubated with compounds. Infected hepatocytes emit light due to the luciferase reaction. Assay results are presented as the percent inhibition of light emission compared to control. […]. The format is functional. The settings on record: sporozoite; for IC90: read-out: LUCIFERASE INFECTION ASSAY - IC90.

The mark [1] stands for this setting: read-out: LUCIFERASE INFECTION ASSAY - IC50.

In general, IC50 refers to the midpoint of a concentration-inhibition curve. As usually defined, the IC90 is the concentration at which the effect reaches the 90% level. Turning to `CC(NC(=S)N/N=C/c1cc(Cl)cc(Cl)c1O)c1ccccc1` (stereo not given), the IC90 came to 8.46 µM. For the same compound, under “PBLUC_HILL_SLOPE 1.69, PBLUC_R_SQUARED 0.56, read-out: LUCIFERASE INFECTION ASSAY - IC50”, the IC50 stood at 2.31 µM.

Turning to `CCCCCn1c(SCC(=O)Nc2sccc2C(N)=O)nc2sc3c(c2c1=O)CCC3`, the IC90 is more than 10 µM. Also, where the note is “FFLUC_HILL_SLOPE 17.7, FFLUC_R_SQUARED 0.0867, read-out: LUCIFERASE INFECTION ASSAY - IC50”, the IC50 is more than 10 µM.

Regarding `CN(C)c1ccc(C(=O)N/N=C/c2cc(Cl)cc(Cl)c2O)cc1`, the IC90 is more than 9.37 µM. The IC50 under setting [1] was more than 9.37 µM.

On to `COC(=O)c1cnc(Sc2n[nH]c(=O)n2-c2ccc(Cl)cc2)c([N+](=O)[O-])c1`, for which the IC90 is more than 8.09 µM. For the same compound, under setting [1], the IC50 is more than 8.09 µM.

In the case of `FC(F)(F)c1cnc(N/N=C/c2cn(-c3ccccc3)nc2-c2cc3ccccc3o2)c(Cl)c1`, the IC90 was more than 10 µM. The IC50 (HEPG2TOX_HILL_SLOPE 5.1, HEPG2TOX_R_SQUARED 0.771, read-out: LUCIFERASE INFECTION ASSAY - IC50) is more than 10 µM.

On to `O=C(C1CCCN(C2=NS(=O)(=O)c3ccccc32)C1)N1CCOCC1` (stereo not given), for which the IC90 was more than 10 µM. The IC50 under setting [1] was more than 10 µM.

In the case of `C/C(=C\c1ccco1)CN1CCc2c(c(C(=O)NCc3ccccn3)nn2CCc2ccccc2)C1`, the IC90 was more than 6.85 µM. Besides, under setting [1], the concentration for half-maximal inhibition (IC50) is more than 6.85 µM.

For the compound `Cc1[nH]nc2ccnc(-c3cccc(Oc4ccccc4)c3)c12`, the IC90 came out at 5.52 µM. Also, the IC50 (PBLUC_HILL_SLOPE 4.64, PBLUC_R_SQUARED 0.273, read-out: LUCIFERASE INFECTION ASSAY - IC50) came out at 3.44 µM.

`CN1CCN(c2ccc(-c3cn4c(-c5ccc(O)cc5)cnc4cn3)cc2)CC1`: the IC90 is more than 8.56 µM. In addition, the half-maximal inhibitory concentration (IC50) (FFLUC_HILL_SLOPE 7.73, FFLUC_R_SQUARED 0.293, read-out: LUCIFERASE INFECTION ASSAY - IC50) was more than 8.56 µM.

As for `CNc1nc2cnc(Nc3cccc(Cl)c3)cc2n1-c1cc(OC)c(OC)c(OC)c1`, the 90% effect concentration (IC90) amounted to 4.49 µM. Further, the IC50 (PBLUC_HILL_SLOPE 3.01, PBLUC_R_SQUARED 0.505, read-out: LUCIFERASE INFECTION ASSAY - IC50) turned out to be 2.17 µM.

On to `CSc1ccc(/C=C2\SC(=O)N(CCNC(=O)c3nc4nccc(C)n4n3)C2=O)cc1`, for which the IC90 was more than 10 µM. Besides, the half-inhibitory concentration (IC50) under setting [1] is more than 10 µM.

Consider `CCn1c(=S)[nH]c2cc(C(=O)N3CCN(C(c4ccc(F)cc4)c4ccc(F)cc4)CC3)ccc21`, for which the IC90 was more than 10 µM. The IC50 under setting [1] was more than 10 µM.

Consider `Oc1cccc(-c2cnc3cnc(-c4ccc(Cl)cc4Cl)cn23)c1`, for which the IC90 was 2.14 µM. Also, the IC50 (HEPG2TOX_HILL_SLOPE 1.62, HEPG2TOX_R_SQUARED 0.949, PBLUC_HILL_SLOPE 1.81, PBLUC_R_SQUARED 0.693, read-out: LUCIFERASE INFECTION ASSAY - IC50) was found to be 0.634 µM.

Regarding `COc1cccc(Nc2nc(C(N)Cc3ccc(F)cc3)cs2)n1` (stereo not given), the IC90 is more than 9.58 µM. For the same compound, the half-maximal inhibitory concentration (IC50) under setting [1] was more than 9.58 µM.

As to `Clc1ccc(-c2csc(-c3nnc4n3-c3ccccc3SC4)n2)s1`, the IC90 was more than 10 µM. Also, the IC50 (PBLUC_HILL_SLOPE 1, PBLUC_R_SQUARED 0.439, read-out: LUCIFERASE INFECTION ASSAY - IC50) stood at 6.32 µM.

Take `O=C(Nc1ncc(Cc2cccc(Cl)c2Cl)s1)c1ccc(-n2cncn2)nc1`: the IC90 was more than 10 µM. Where the note is “FFLUC_HILL_SLOPE 10.4, FFLUC_R_SQUARED 0.281, HEPG2TOX_HILL_SLOPE 2.29, HEPG2TOX_R_SQUARED 0.935, PBLUC_HILL_SLOPE 1.7, PBLUC_R_SQUARED 0.542, read-out: LUCIFERASE INFECTION ASSAY - IC50”, the IC50 was found to be 3.51 µM.

For `c1cc2c(cc1-c1cn3c(-c4ccc5c(c4)OCO5)cnc3cn1)OCO2`, the IC90 was 8.22 µM. Further, where the note is “HEPG2TOX_HILL_SLOPE 1.25, HEPG2TOX_R_SQUARED 0.883, PBLUC_HILL_SLOPE 2.72, PBLUC_R_SQUARED 0.694, read-out: LUCIFERASE INFECTION ASSAY - IC50”, the IC50 amounted to 3.66 µM.

Take `O=c1c(Cl)c(Cl)cnn1-c1ccc(S(=O)(=O)NCCCOCC2CC2)cc1`: the IC90 was 4.65 µM. Besides, the IC50 (HEPG2TOX_HILL_SLOPE 15.7, HEPG2TOX_R_SQUARED 0.58, PBLUC_HILL_SLOPE 8.81, PBLUC_R_SQUARED 0.0863, read-out: LUCIFERASE INFECTION ASSAY - IC50) came to 3.62 µM.

For `COc1ccc(-c2c[n+]3c4n2CCCCC4=C(c2ccccc2)C3)cc1`, the IC90 was more than 10 µM. The IC50 (PBLUC_HILL_SLOPE 3.06, PBLUC_R_SQUARED 0.525, read-out: LUCIFERASE INFECTION ASSAY - IC50) came to 6.77 µM.

Turning to `Cc1ccc(-c2cc(C(=O)Nc3nnc(C(C)C)s3)[nH]n2)c(O)c1C`, the IC90 was more than 9.23 µM. For the same compound, the IC50 under setting [1] is more than 9.23 µM.

Take `Cc1nn(C)c(Cl)c1C=C(C(=O)NCCc1ccccc1)C(=O)NCCc1ccccc1`: the IC90 was more than 10 µM. Also, under setting [1], the IC50 was more than 10 µM.

Turning to `CCC1c2ccsc2CCN1Cc1cc(=O)n2cc(Cl)ccc2n1` (stereo not given), the IC90 was more than 10 µM. For the same compound, the IC50 under setting [1] is more than 10 µM.

For `Cc1cnc(NC(=O)Nc2cccc(C(F)(F)F)c2)s1`, the IC90 is 3.82 µM. Under “FFLUC_HILL_SLOPE 11.7, FFLUC_R_SQUARED 0.144, HEPG2TOX_HILL_SLOPE 3.17, HEPG2TOX_R_SQUARED 0.951, PBLUC_HILL_SLOPE 13.6, PBLUC_R_SQUARED 0.664, read-out: LUCIFERASE INFECTION ASSAY - IC50”, the IC50 worked out at 3.25 µM.

As for `C=CCOc1cccc(/C=C2/C(=O)Nc3cc(Cl)ccc32)c1`, the IC90 is more than 10 µM. Besides, where the note is “FFLUC_HILL_SLOPE 17.6, FFLUC_R_SQUARED 0.397, HEPG2TOX_HILL_SLOPE 7.7, HEPG2TOX_R_SQUARED 0.755, PBLUC_HILL_SLOPE 12.7, PBLUC_R_SQUARED 0.0397, read-out: LUCIFERASE INFECTION ASSAY - IC50”, the IC50 stood at 9.6 µM.

Regarding `Cc1cc(Nc2cccc(C(F)(F)F)c2)n2ncc(C#N)c2n1`, the IC90 was determined as 3.35 µM. In addition, the 50% inhibitory concentration (IC50) (HEPG2TOX_HILL_SLOPE 1.43, HEPG2TOX_R_SQUARED 0.906, PBLUC_HILL_SLOPE 4.64, PBLUC_R_SQUARED 0.533, read-out: LUCIFERASE INFECTION ASSAY - IC50) came out at 2.09 µM.

Regarding `CCOc1cc(C(=O)N2CCOCC2)ccc1OCc1cccnc1`, the IC90 is more than 10 µM. Moreover, the 50% inhibitory concentration (IC50) under setting [1] is more than 10 µM.

With `COC(=O)c1c(C)[nH]c(C(=O)Nc2nc(-c3cc(C)sc3C)cs2)c1C`, the IC90 is more than 10 µM. The IC50 (HEPG2TOX_HILL_SLOPE 5.44, HEPG2TOX_R_SQUARED 0.234, read-out: LUCIFERASE INFECTION ASSAY - IC50) was more than 10 µM.

Turning to `COc1ccc(-c2cnc3cnc(-c4ccc(CO)cc4)cn23)cn1`, the IC90 was found to be 9.63 µM. In addition, the IC50 (PBLUC_HILL_SLOPE 6.35, PBLUC_R_SQUARED 0.601, read-out: LUCIFERASE INFECTION ASSAY - IC50) worked out at 6.81 µM.

On to `CSc1nccc(-c2ccc(Cl)cc2)n1`, for which the IC90 was more than 13.9 µM. For the same compound, for the setting “FFLUC_HILL_SLOPE 5.64, FFLUC_R_SQUARED 0.137, read-out: LUCIFERASE INFECTION ASSAY - IC50”, the IC50 is more than 13.9 µM.

For `O=C(NC1CC1)c1ccc(CN(C2CC2)S(=O)(=O)c2cccc3c2N=S=N3)cc1`, the IC90 was more than 10 µM. The IC50 under setting [1] was more than 10 µM.

`COc1ccc(CC(N)c2csc(NC(=O)Nc3cccc(Cl)c3)n2)cc1` (stereo not given): the IC90 is more than 8.19 µM. Further, under setting [1], the IC50 was more than 8.19 µM.

Regarding `O=C(C1=NNCC1c1ccccc1)c1cc2ccccc2c2ccccc12` (stereo not given), the IC90 is more than 9.42 µM. Moreover, the IC50 (HEPG2TOX_HILL_SLOPE 2.61, HEPG2TOX_R_SQUARED 0.965, PBLUC_HILL_SLOPE 1.24, PBLUC_R_SQUARED 0.535, read-out: LUCIFERASE INFECTION ASSAY - IC50) came out at 3.17 µM.

With `N#Cc1c(/N=C/c2ccccc2C(F)(F)F)sc2c1CCCCC2`, the IC90 was determined as 7.41 µM. The 50% inhibitory concentration (IC50) (FFLUC_HILL_SLOPE 1.19, FFLUC_R_SQUARED 0.84, PBLUC_HILL_SLOPE 1.29, PBLUC_R_SQUARED 0.776, read-out: LUCIFERASE INFECTION ASSAY - IC50) was determined as 1.35 µM.

Regarding `Oc1c(C(Nc2nccs2)c2cccnc2)ccc2cccnc12` (stereo not given), the IC90 was 3.75 µM. Moreover, the IC50 (HEPG2TOX_HILL_SLOPE 1.4, HEPG2TOX_R_SQUARED 0.615, PBLUC_HILL_SLOPE 3.49, PBLUC_R_SQUARED 0.793, read-out: LUCIFERASE INFECTION ASSAY - IC50) stood at 2 µM.

For the compound `FC(F)Oc1ccc(NC(=S)NCC23CC4CC(CC(C4)C2)C3)cc1`, the IC90 was 9.77 µM. Also, where the note is “HEPG2TOX_HILL_SLOPE 8.2, HEPG2TOX_R_SQUARED 0.229, PBLUC_HILL_SLOPE 14.4, PBLUC_R_SQUARED 0.791, read-out: LUCIFERASE INFECTION ASSAY - IC50”, the IC50 came out at 8.38 µM.

`CCOC(=O)c1[nH]c2c(c1C)C(=O)/C(=C/c1ccc(Cl)cc1)CC2`: the IC90 was more than 10 µM. Under setting [1], the IC50 is more than 10 µM.

In the case of `CNC(=O)c1ccc(/C=C/C(=O)N(c2ccc(C)c(F)c2)c2nc3ccccc3s2)cc1`, the IC90 was 8.92 µM. In addition, for the setting “FFLUC_HILL_SLOPE 1.49, FFLUC_R_SQUARED 0.0757, PBLUC_HILL_SLOPE 4.44, PBLUC_R_SQUARED 0.348, read-out: LUCIFERASE INFECTION ASSAY - IC50”, the IC50 was 5.44 µM.

With `CC(NC(=O)c1cn(C)c2ccccc12)c1ccccn1` (stereo not given), the 90% effect concentration (IC90) was more than 2 µM. Further, the IC50 under setting [1] was more than 2 µM.

For the compound `NC(=O)c1ccsc1NC(=O)COC(=O)c1ccc2c(c1Cl)C(=O)c1ccccc1C2=O`, the IC90 is more than 10 µM. Moreover, the IC50 under setting [1] was more than 10 µM.

As for `Cn1c(N)c(N2CCNCC2)c(=O)n(C)c1=O`, the IC90 is more than 10 µM. Also, the IC50 under setting [1] is more than 10 µM.
